Measurements taken from paper PMC9503898, “Synthesis and Evaluation of Two Long-Acting SSTR2 Antagonists for Radionuclide Therapy of Neuroendocrine Tumors” (Pharmaceuticals, 2022).
Positions of bridges follow the written chain, without caps; N, C: chain ends. Non-standard residues stand in square brackets, D forms with d. Residues, ends and D or L forms follow the SMILES beside them. *: point of attachment. DOTA = O=C(O)CN1CCN(CC(=O)O)CCN(CC(=O)*)CCN(CC(=O)O)CC1; dPhe(4-NHCONH2) = NC(=O)Nc1ccc(C[C@@H](N)C(=O)O)cc1; Butanoyl(4-(4-I-phenyl)) = O=C(CCCc1ccc(I)cc1)*; Dihydroorotyl(S) = O=C1C[C@@H](C(=O)*)NC(=O)N1; Phe(4-Cl) = N[C@@H](Cc1ccc(Cl)cc1)C(=O)O; Phe(4-NH2) = Nc1ccc(C[C@H](N)C(=O)O)cc1

Assays:
Stability in PBS = assay type: physicochemical; conditions: % intact radiolabeled ligand, ~3 MBq in PBS (300 μL), 37 °C, radio-HPLC, n = 1
Description: (§1) The ^177Lu-labeled compounds (~3 MBq) were incubated in PBS (300 μL) at 37 °C. The stability of the radiolabeled peptides was verified by radio-HPLC at 1, 4, and 24 h. The stability in serum was determined by incubating the radiolabeled compounds (~3 MBq) into 150 μL of mouse serum (Merck; Haarlerbergweg, The Netherlands) at 37 °C. At 1, 4, and 24 h post-incubation, the proteins were precipitated by adding an aliquot of 35 μL of the mixture to an equal volume of ACN. The vial was vortexed and centrifuged for 20 min. stability was monitored by radio-HPLC (Figures S4 and S5).

Stability in mouse serum = assay type: in vitro ADME; conditions: % intact radiolabeled ligand, ~3 MBq in 150 μL mouse serum, 37 °C, ACN protein precipitation, radio-HPLC, n = 1
Description: as §1

[1] = Determination of lipophilicity (LogD7.4, shake-flask); assay type: physicochemical; conditions: n-octanol/PBS (1:1), pH 7.4, PBS/n-octanol 1:1 (1 mL), ~1.5 MBq, gamma counter, n = 3 (triplicate), mean ± SEM, read-out: Log D7.4
Description: The distribution coefficient (LogD7.4) of the ^177Lu-labeled peptides was determined by the shake-flask method. For each radioligand, the experiment was performed in triplicate. The radiolabeled compound (~1.5 MBq) was added to a solution of phosphate buffered saline (PBS)/n-octanol (1 mL, v:v = 1:1) in eppendorf vials. The vials were vortexed vigorously and centrifuged at 10,000 rpm for 3 min. The n-octanol phase was separated from the aqueous phase, poured into new vials, and centrifuged for 15 min. Samples from each phase (10 μL) were measured using a gamma counter. The LogD7.4 value was calculated using the following equation: […].

Ex vivo biodistribution = conditions: mouse, iv, 0.5 nmol, total radioactivity
In vivo SPECT/CT imaging = conditions: mouse, H69 xenograft tumor, iv, 20 MBq/0.5 nmol per animal, total radioactivity
[2] = system: mice bearing SSTR2-positive H69 xenografts; assay: In vivo SPECT/CT imaging; conditions: H69 xenograft mice, i.v. 20 MBq/0.5 nmol, n = 4
human albumin = human albumin (Homo sapiens, UniProt P02768); assay: Albumin binding properties (ultrafiltration); conditions: ~1 MBq in human albumin/PBS (500 µL, v:v = 1:4), 1 h, 37 °C; Centrifree ultrafiltration 30 KDa; gamma counter; n = 3, mean ± SEM
Sequence of human albumin (P02768 25-609): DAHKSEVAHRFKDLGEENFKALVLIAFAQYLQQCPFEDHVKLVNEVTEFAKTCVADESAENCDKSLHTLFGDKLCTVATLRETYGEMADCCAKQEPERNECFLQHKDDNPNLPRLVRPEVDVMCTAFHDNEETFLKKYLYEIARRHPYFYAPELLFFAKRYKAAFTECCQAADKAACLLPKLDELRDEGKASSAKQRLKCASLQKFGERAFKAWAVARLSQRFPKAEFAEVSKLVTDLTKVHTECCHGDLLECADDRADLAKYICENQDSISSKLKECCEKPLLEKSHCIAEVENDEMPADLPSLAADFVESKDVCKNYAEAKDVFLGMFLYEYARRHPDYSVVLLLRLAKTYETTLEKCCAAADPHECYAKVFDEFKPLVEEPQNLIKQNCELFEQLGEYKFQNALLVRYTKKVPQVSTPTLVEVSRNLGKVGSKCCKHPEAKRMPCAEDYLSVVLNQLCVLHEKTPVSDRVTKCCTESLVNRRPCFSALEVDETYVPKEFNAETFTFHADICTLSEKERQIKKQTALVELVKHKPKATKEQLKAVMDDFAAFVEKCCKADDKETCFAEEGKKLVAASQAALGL

Stability in PBS (%) 1 h (Stability in PBS; 1 h): 96.5% | Stability in PBS (%) 4 h (Stability in PBS; 4 h): 96.5% | Stability in PBS (%) 24 h (Stability in PBS; 24 h): 97.2% | remaining at 1 h (Stability in mouse serum; 1 h): 97.3% | remaining at 4 h (Stability in mouse serum; 4 h): 98.4% | remaining at 24 h (Stability in mouse serum; 24 h): 98.5% | logD [1]: -1.6 ± 0.03 | tissue uptake at 4 h (Ex vivo biodistribution; blood): 21.3 ± 1.1 %ID/g | tissue uptake at 24 h (Ex vivo biodistribution; blood): 18.1 ± 4.2 %ID/g | tissue uptake at 48 h (Ex vivo biodistribution; blood): 12.9 ± 1.2 %ID/g | tissue uptake at 72 h (Ex vivo biodistribution; blood): 8.6 ± 0.5 %ID/g | tissue uptake at 4 h (Ex vivo biodistribution; bone marrow): 1.2 ± 2 %ID/g | tissue uptake at 4 h (Ex vivo biodistribution; bone): 1.3 ± 1.8 %ID/g | tissue uptake at 24 h (Ex vivo biodistribution; bone): 1.5 ± 1.1 %ID/g | tissue uptake at 48 h (Ex vivo biodistribution; bone): 0.9 ± 0.4 %ID/g | tissue uptake at 72 h (Ex vivo biodistribution; bone): 1.2 ± 1 %ID/g | tissue uptake at 4 h (Ex vivo biodistribution; heart): 7.6 ± 1.2 %ID/g | tissue uptake at 24 h (Ex vivo biodistribution; heart): 5.1 ± 0.7 %ID/g | tissue uptake at 48 h (Ex vivo biodistribution; heart): 4.8 ± 0.5 %ID/g | tissue uptake at 72 h (Ex vivo biodistribution; heart): 3.9 ± 0.7 %ID/g | tissue uptake at 4 h (Ex vivo biodistribution; intestine): 2.5 ± 0.2 %ID/g | tissue uptake at 24 h (Ex vivo biodistribution; intestine): 1.7 ± 0.1 %ID/g | tissue uptake at 48 h (Ex vivo biodistribution; intestine): 1.4 ± 0.1 %ID/g | tissue uptake at 72 h (Ex vivo biodistribution; intestine): 1.1 %ID/g | tissue uptake at 4 h (Ex vivo biodistribution; kidney): 9.6 ± 1.2 %ID/g | tissue uptake at 24 h (Ex vivo biodistribution; kidney): 18.4 ± 1.9 %ID/g | tissue uptake at 48 h (Ex vivo biodistribution; kidney): 22.6 ± 1.9 %ID/g | tissue uptake at 72 h (Ex vivo biodistribution; kidney): 21.6 ± 1.4 %ID/g | tissue uptake at 4 h (Ex vivo biodistribution; liver): 4.6 ± 1.2 %ID/g | tissue uptake at 24 h (Ex vivo biodistribution; liver): 3.7 ± 0.2 %ID/g | tissue uptake at 48 h (Ex vivo biodistribution; liver): 3.6 ± 0.2 %ID/g | tissue uptake at 72 h (Ex vivo biodistribution; liver): 2.9 ± 0.3 %ID/g | tissue uptake at 4 h (Ex vivo biodistribution; lung): 9.9 ± 2.9 %ID/g | tissue uptake at 24 h (Ex vivo biodistribution; lung): 7.5 ± 0.6 %ID/g | tissue uptake at 48 h (Ex vivo biodistribution; lung): 7.2 ± 0.3 %ID/g | tissue uptake at 72 h (Ex vivo biodistribution; lung): 6 ± 0.5 %ID/g | tissue uptake at 4 h (Ex vivo biodistribution; muscle): 0.8 ± 1.1 %ID/g | tissue uptake at 24 h (Ex vivo biodistribution; muscle): 1.1 ± 0.1 %ID/g | tissue uptake at 48 h (Ex vivo biodistribution; muscle): 1.2 ± 0.5 %ID/g | tissue uptake at 72 h (Ex vivo biodistribution; muscle): 0.8 ± 0.1 %ID/g | tissue uptake at 4 h (Ex vivo biodistribution; pancreas): 7.2 ± 0.3 %ID/g | tissue uptake at 24 h (Ex vivo biodistribution; pancreas): 6.6 ± 0.3 %ID/g | tissue uptake at 48 h (Ex vivo biodistribution; pancreas): 6.3 ± 0.7 %ID/g | tissue uptake at 72 h (Ex vivo biodistribution; pancreas): 5.3 ± 1.2 %ID/g | tissue uptake at 4 h (Ex vivo biodistribution; skin): 5.9 ± 1.1 %ID/g | tissue uptake at 24 h (Ex vivo biodistribution; skin): 5.4 ± 0.9 %ID/g | tissue uptake at 48 h (Ex vivo biodistribution; skin): 6.3 ± 1.6 %ID/g | tissue uptake at 72 h (Ex vivo biodistribution; skin): 4.8 ± 0.3 %ID/g | tissue uptake at 4 h (Ex vivo biodistribution; spleen): 3.2 ± 0.7 %ID/g | tissue uptake at 24 h (Ex vivo biodistribution; spleen): 3.8 ± 0.4 %ID/g | tissue uptake at 48 h (Ex vivo biodistribution; spleen): 5.8 ± 0.6 %ID/g | tissue uptake at 72 h (Ex vivo biodistribution; spleen): 5.4 ± 0.2 %ID/g | tissue uptake at 4 h (Ex vivo biodistribution; stomach): 3.8 ± 0.4 %ID/g | tissue uptake at 24 h (Ex vivo biodistribution; stomach): 3.1 ± 1.4 %ID/g | tissue uptake at 48 h (Ex vivo biodistribution; stomach): 3.3 ± 1.2 %ID/g | tissue uptake at 72 h (Ex vivo biodistribution; stomach): 3 ± 0.5 %ID/g | tissue uptake at 4 h (Ex vivo biodistribution; tumor): 4.1 ± 0.5 %ID/g | tissue uptake at 24 h (Ex vivo biodistribution; tumor): 6.5 ± 0.2 %ID/g | tissue uptake at 48 h (Ex vivo biodistribution; tumor): 7.3 ± 0.4 %ID/g | tissue uptake at 72 h (Ex vivo biodistribution; tumor): 7.3 ± 0.9 %ID/g | tissue uptake per volume at 4 h (In vivo SPECT/CT imaging): 3.7 ± 0.9 %ID/mL | tissue uptake per volume at 24 h (In vivo SPECT/CT imaging): 4.9 ± 0.5 %ID/mL | tissue uptake per volume at 48 h (In vivo SPECT/CT imaging): 5.7 ± 0.6 %ID/mL | tissue uptake per volume at 72 h (In vivo SPECT/CT imaging): 4.9 ± 0.3 %ID/mL | SPECT quantification, kidneys (K), 4 h ([2]; 4 h post-injection): 7.7 ± 0.9 % ID/mL | SPECT quantification, kidneys (K), 24 h ([2]; 24 h post-injection): 10.1 ± 0.8 % ID/mL | SPECT quantification, kidneys (K), 48 h ([2]; 48 h post-injection): 10.1 ± 0.3 % ID/mL | SPECT quantification, kidneys (K), 72 h ([2]; 72 h post-injection): 8.9 ± 0.2 % ID/mL | Protein-Bound Fraction (%) (human albumin): 89.5 ± 0.8%
Compound: C[C@@H](O)[C@@H]1NC(=O)[C@H](CCCCN)NC(=O)[C@@H](Cc2ccc(NC(N)=O)cc2)NC(=O)[C@H](Cc2ccc(NC(=O)[C@@H]3CC(=O)NC(=O)N3)cc2)NC(=O)[C@H](NC(=O)[C@H](Cc2ccc(Cl)cc2)NC(=O)[C@H](CCCCNC(=O)CCCc2ccc(I)cc2)NC(=O)CN2CCN(CC(=O)O)CCN(CC(=O)O)CCN(CC(=O)O)CC2)CSSC[C@@H](C(=O)N[C@H](Cc2ccc(O)cc2)C(N)=O)NC1=O [[^177Lu]Lu-8a, metal not drawn] ({DOTA}-K(Butanoyl(4-(4-I-phenyl)))[Phe(4-Cl)][dC][Phe(4-NH2)](Dihydroorotyl(S))[dPhe(4-NHCONH2)]KTC[dY]-NH2; disulfide 3-8)
